One assay deals with CHO cells. In words: Cell staining with liposomes containing DDAO-gal, CHO cells (FMAT fluorescence). The class given is cell-based, Chinese Hamster. Conditions: no endogenous β-galactosidase, 3 hr at 37° C., excitation 633 nm. The procedure:
The experiments shown in FIGS. 7-9, were conducted under similar conditions to those of FIGS. 1-3, respectively, with the exception that Chinese Hamster Ovary (CHO) cells were used.

The target in another assay is E. coli β-galactosidase (Escherichia coli, UniProt P00722). Conditions: psi 2 BAGα cells constitutively expressing β-galactosidase; 3 hr at 37° C.; excitation 633 nm; emission 685-710 nm (panel B).

Each structure is given as a SMILES string.

Sequence of E. coli β-galactosidase (P00722 whole entry): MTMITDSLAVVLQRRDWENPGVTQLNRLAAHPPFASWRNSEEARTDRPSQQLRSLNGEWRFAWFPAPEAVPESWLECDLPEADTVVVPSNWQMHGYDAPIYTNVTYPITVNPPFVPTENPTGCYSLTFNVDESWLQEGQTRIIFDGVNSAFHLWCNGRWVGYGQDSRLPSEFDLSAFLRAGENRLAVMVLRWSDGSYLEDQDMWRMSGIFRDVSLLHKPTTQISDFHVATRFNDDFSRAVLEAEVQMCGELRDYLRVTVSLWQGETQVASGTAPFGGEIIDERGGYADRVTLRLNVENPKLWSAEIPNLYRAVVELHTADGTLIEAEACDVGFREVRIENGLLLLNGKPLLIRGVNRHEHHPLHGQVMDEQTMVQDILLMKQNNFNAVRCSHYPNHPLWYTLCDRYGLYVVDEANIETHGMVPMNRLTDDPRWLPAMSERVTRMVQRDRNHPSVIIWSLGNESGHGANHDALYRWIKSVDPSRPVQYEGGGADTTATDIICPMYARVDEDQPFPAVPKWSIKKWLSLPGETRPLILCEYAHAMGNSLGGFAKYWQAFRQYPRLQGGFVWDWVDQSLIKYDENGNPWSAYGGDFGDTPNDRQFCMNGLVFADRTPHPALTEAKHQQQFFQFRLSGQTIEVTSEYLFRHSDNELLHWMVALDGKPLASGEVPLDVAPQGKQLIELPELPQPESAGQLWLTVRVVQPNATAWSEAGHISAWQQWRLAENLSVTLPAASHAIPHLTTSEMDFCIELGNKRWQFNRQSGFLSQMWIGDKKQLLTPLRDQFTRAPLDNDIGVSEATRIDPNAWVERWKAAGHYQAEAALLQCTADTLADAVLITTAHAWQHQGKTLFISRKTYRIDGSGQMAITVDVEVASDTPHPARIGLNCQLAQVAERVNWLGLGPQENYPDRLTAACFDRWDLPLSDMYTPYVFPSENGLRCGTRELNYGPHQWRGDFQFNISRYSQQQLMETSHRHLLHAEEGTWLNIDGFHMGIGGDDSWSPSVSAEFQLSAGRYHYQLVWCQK
Protocol for E. coli β-galactosidase: Psi 2 BAGα cells (ATCC, catalog no. CRL-9560) in Dulbecco's modified Eagle's medium (ATCC, catalog no. 30-2002) containing 5% Fetal Bovine Serum (FBS, HyClone, catalog no. SH30071.03) and 1% penicillin-streptomycin solution (pen/strep, ATCC, catalog no. 30-2300) were seeded (200 μl/well, 10,000 cell/well) in black 96 well microtiter plates (ABI, catalog no. 4308776). […] After overnight incubation at 37° C. under 5% CO2 the supernatants were removed carefully so as not to detach the adherent cells from the wells. Solutions of liposome encapsulated DDAO-gal, liposome encapsulated DDAO and nonencapsulated DDAO-gal were prepared in the appropriate cell medium and then added to the cells (200 μl/well). The nonencapsulated DDAO-gal solution was used as a negative control (no liposome, passive uptake) and the liposome encapsulated DDAO solution was used as a positive control (DDAO is the product of DDAO-gal hydrolysis). After incubation for 3 hr at 37° C. under 5% CO2 the staining solutions were removed carefully and the cells were washed twice with Dulbecco's PBS (200 μl, ATCC, catalog no. 30-2200). PBS (200 μl) was added to the wells and the plate was read using an 8100 FMAT instrument (Applied Biosystems, an Applera Corporation business).
DDAO-gal without liposomes were used as a negative control (passive load) and liposomes containing DDAO were used as a positive control. […]

Take `CC1(C)C2=C(Cl)C(=O)C(Cl)=CC2=Nc2ccc(O[C@@H]3O[C@H](CO)[C@H](O)[C@H](O)[C@H]3O)cc21` [DDAO-gal, 9H-(1,3-dichloro-9,9-dimethylacridin-2-one-7-yl) β-D-galactopyranoside]: the fluorescent signal result was “signal observed” in the assay on CHO cells and “much lower signal” at E. coli β-galactosidase.

The values above are taken from patent US20050244907A1, “Methods, compositions, and kits for analysis of enzyme activity in cells” (Applera Corporation, priority 2003, published 2005).
